Measurements reported in patent US12570647B2 (Saint Louis University, priority 2021, dated 2026).
In brackets after ≈: the same amount, converted by molar mass. Read-outs that look alike come from different tables or passages of the source.

Experiments:
S. aureus AR217 = test system: S. aureus AR217; set-up: key to Antibiotic susceptibility (R/S/I): R: resistance; S: sensitive; I: intermediate; conditions: S. aureus AR217 (CDC strain), cited from earlier work; for Antibiotic susceptibility (R/S/I): Table 2
S. aureus AR215 = test system: S. aureus AR215; set-up: key to Antibiotic susceptibility (R/S/I): R: resistance; S: sensitive; I: intermediate; conditions: S. aureus AR215 (CDC strain), cited from earlier work; for Antibiotic susceptibility (R/S/I): Table 2
S. aureus AR222 [1] = test system: S. aureus AR222; set-up: key to Antibiotic susceptibility (R/S/I): R: resistance; S: sensitive; I: intermediate; conditions: S. aureus AR222 (CDC strain), cited from earlier work; for Antibiotic susceptibility (R/S/I): Table 2
S. aureus ATCC 25923 = test system: S. aureus ATCC 25923; set-up: key: R: resistance; S: sensitive; I: intermediate; conditions: Table 2; cited from earlier work
[2] = test system: S. aureus AR217 (MRSA, multidrug-resistant strain); assay: S. aureus MIC80 determination, broth microdilution (CLSI) in CAMHB; format: cell-based; conditions: Table 2
Description: (§1) S. Aureus MIC80 determinations in S. aureus ATCC25923 or in multidrug-resistant strains AR215, AR217 and AR255. MIC80's were determined by the broth microdilution method recommended by the Clinical and Laboratory Standards Institute (CLSI) in Cation-adjusted Mueller-Hinton broth (CAMHB). (Cao et al., 2018). In the preliminary screening, three compound concentrations were used: 5.8, 20.4, and 71.4 μM; for quantitative MIC80 measurements, a 1.5-fold dilution series of the compounds was prepared in CAMHB. Overnight bacterial culture was added to the diluted compounds in a 96-well plate after adjusting the bacterial concentration to achieve a 5×10^5 CFU/mL final concentration. After 16-24 h incubation at 35±2° C., the plates were read at 600 nm in a microplate reader. The MIC80 was defined as the concentration of an antibacterial agent that inhibited bacteria growth ≥80% compared to vehicle-treated control cultures. All values were determined at least twice independently, and the average number is reported.
(§2) AR215, AR217, and AR222 were obtained from the Centers for Disease Control and Prevention (CDC). AR215 and AR217 are cefoxitin-screen positive (resistant to cefoxitin) and resistant to oxacillin, which are MRSA strains. AR215 is also resistant to clindamycin, erythromycin, levofloxacin, and penicillin. AR217 is also resistant to levofloxacin, penicillin, and Trimethoprim-sulfamethoxazole. AR222 is only resistant to penicillin.

[3] = test system: S. aureus AR215 (MRSA, multidrug-resistant strain); assay: as above; format: cell-based; conditions: Table 2
Description: as §1, §2

S. aureus AR222 [4] = assay: as above; format: cell-based; conditions: Table 2
Description: as §1, §2

S. aureus ATCC25923 = assay: as above; format: cell-based; conditions: S. aureus ATCC 25923
Description: as §1

[5] = Staphylococcus aureus, ATCC25923, Table 1, growth inhibition ≥80% vs vehicle, 16-24 h, read-out: ATCC 25923 MIC80

## Penicillin
S. aureus AR217
  Resistance of the strain to the antibiotic: resistant
  Antibiotic susceptibility (R/S/I): R
S. aureus AR215
  Resistance of the strain to the antibiotic: resistant
  Antibiotic susceptibility (R/S/I): R
S. aureus AR222 [1]
  Resistance of the strain to the antibiotic: resistant
  Antibiotic susceptibility (R/S/I): R

## CCCCCCCCCC(=O)N[C@@H](Cc1c[nH]c2ccccc12)C(=O)N[C@H](CC(N)=O)C(=O)N[C@@H](CC(=O)O)C(=O)N[C@@H]1C(=O)NCC(=O)N[C@@H](CCCN)C(=O)N[C@@H](CC(=O)O)C(=O)N[C@H](C)C(=O)N[C@@H](CC(=O)O)C(=O)NCC(=O)N[C@H](CO)C(=O)N[C@@H]([C@H](C)CC(=O)O)C(=O)N[C@@H](CC(=O)c2ccccc2N)C(=O)O[C@@H]1C [DAP, Daptomycin]
S. aureus ATCC 25923
  Antibiotic susceptibility (R/S/I): S
S. aureus AR222 [1]
  Antibiotic susceptibility (R/S/I): S

## clorofloxacin [reference compound]
[2]
  MIC80: .30 µM
[3]
  MIC80: .66 µM
S. aureus AR222 [4]
  MIC80: 0.52 µM
S. aureus ATCC25923; Table 2, read-out: MIC80
  MIC80: 40.52 µM

## CN[C@H](CC(C)C)C(=O)N[C@H]1C(=O)N[C@@H](CC(N)=O)C(=O)N[C@H]2C(=O)N[C@H]3C(=O)N[C@H](C(=O)N[C@H](C(=O)O)c4cc(O)cc(O)c4-c4cc3ccc4O)[C@H](O)c3ccc(c(Cl)c3)Oc3cc2cc(c3O[C@@H]2O[C@H](CO)[C@@H](O)[C@H](O)[C@H]2O[C@H]2C[C@](C)(N)[C@H](O)[C@H](C)O2)Oc2ccc(cc2Cl)[C@H]1O [VAN, Vancomycin]
S. aureus AR217
  Antibiotic susceptibility (R/S/I): I
S. aureus ATCC 25923
  Antibiotic susceptibility (R/S/I): S
S. aureus AR215
  Antibiotic susceptibility (R/S/I): I
S. aureus AR222 [1]
  Antibiotic susceptibility (R/S/I): I

## CC[C@H]1OC(=O)[C@H](C)[C@@H](O[C@H]2C[C@@](C)(OC)[C@@H](O)[C@H](C)O2)[C@H](C)[C@@H](O[C@@H]2O[C@H](C)C[C@H](N(C)C)[C@H]2O)[C@](C)(O)C[C@@H](C)C(=O)[C@H](C)[C@@H](O)[C@]1(C)O [ERY, Erythromycin]
S. aureus AR217
  Antibiotic susceptibility (R/S/I): S
S. aureus ATCC 25923
  Antibiotic susceptibility (R/S/I): S
S. aureus AR215
  Resistance of the strain to the antibiotic: resistant
  Antibiotic susceptibility (R/S/I): R
S. aureus AR222 [1]
  Antibiotic susceptibility (R/S/I): S

## Gentamicin
S. aureus AR217
  Antibiotic susceptibility (R/S/I): S
S. aureus ATCC 25923
  Antibiotic susceptibility (R/S/I): S
S. aureus AR215
  Antibiotic susceptibility (R/S/I): S
S. aureus AR222 [1]
  Antibiotic susceptibility (R/S/I): S

## CO[C@H]1/C=C/O[C@@]2(C)Oc3c(C)c(O)c4c(O)c(c(/C=N/N5CCN(C)CC5)c(O)c4c3C2=O)NC(=O)/C(C)=C\C=C\[C@H](C)[C@H](O)[C@@H](C)[C@@H](O)[C@@H](C)[C@H](OC(C)=O)[C@@H]1C [RIF, Rifampin]
S. aureus AR217
  Antibiotic susceptibility (R/S/I): S
S. aureus ATCC 25923
  Antibiotic susceptibility (R/S/I): S
S. aureus AR215
  Antibiotic susceptibility (R/S/I): S
S. aureus AR222 [1]
  Antibiotic susceptibility (R/S/I): I

## Cc1cc(Cl)cc2sc(N(CCCn3ccnc3)CCCn3ccnc3)nc12 [Example 28, N,N-bis(3-(1H-imidazol-1-yl)propyl)-6-chloro-4-methylbenzo[d]thiazol-2-amine]
S. aureus ATCC25923; [5]
  MIC80: 5.9 µM (≈ 2.45 µg/mL)

## Cc1cc(Cl)cc2sc(N3CCC(NC(=O)OC(C)(C)C)CC3)nc12 [Example 58]
S. aureus ATCC25923; [5]
  MIC80: > 100 µM

## Cc1cc(Cl)cc2sc(N(CC3CCN(C)CC3)C(=O)C3CCC3)nc12 [Example 38, N-(6-chloro-4-methyl-1,3-benzothiazol-2-yl)-N-[(1-methylpiperidin-4-yl)methyl]cyclobutanecarboxamide]
S. aureus ATCC25923; [5]
  MIC80: > 100 µM

## NCc1cccc2sc(N(CCCn3ccnc3)C(=O)C3CCC3)nc12 [Example 47, N-[4-(aminomethyl)-1,3-benzothiazol-2-yl]-N-[3-(1H-imidazol-1-yl)propyl]cyclobutanecarboxamide]
S. aureus ATCC25923; [5]
  MIC80: > 100 µM

## CO[C@@]1(NC(=O)Cc2cccs2)C(=O)N2C(C(=O)O)=C(COC(N)=O)CS[C@@H]21 [FOX, Cefoxitin]
S. aureus AR217
  Resistance of the strain to the antibiotic: resistant
  Antibiotic susceptibility (R/S/I): R
S. aureus AR215
  Resistance of the strain to the antibiotic: resistant
  Antibiotic susceptibility (R/S/I): R
S. aureus AR222 [1]
  Antibiotic susceptibility (R/S/I): S

## CC(=O)NC[C@H]1CN(c2ccc(N3CCOCC3)c(F)c2)C(=O)O1 [LZD, Linezolid]
S. aureus AR217
  Antibiotic susceptibility (R/S/I): S
S. aureus ATCC 25923
  Antibiotic susceptibility (R/S/I): S
S. aureus AR215
  Antibiotic susceptibility (R/S/I): S
S. aureus AR222 [1]
  Antibiotic susceptibility (R/S/I): S

## Cc1cc(Cl)cc2sc(N3CCN(C(=O)OC(C)(C)C)CC3)nc12 [Example 59]
S. aureus ATCC25923; [5]
  MIC80: > 100 µM

## Cc1onc(-c2ccccc2)c1C(=O)N[C@@H]1C(=O)N2[C@@H]1SC(C)(C)[C@@H]2C(=O)O [OXA, Oxacillin]
S. aureus AR217
  Resistance of the strain to the antibiotic: resistant
  Antibiotic susceptibility (R/S/I): R
S. aureus ATCC 25923
  Antibiotic susceptibility (R/S/I): S
S. aureus AR215
  Resistance of the strain to the antibiotic: resistant
  Antibiotic susceptibility (R/S/I): R
S. aureus AR222 [1]
  Antibiotic susceptibility (R/S/I): S

## Cc1cc(Cl)cc2sc(N(CCCn3ccnc3)C(=O)C3(C)CC3)nc12 [Example 18, N-(3-(1H-imidazol-1-yl)propyl)-N-(6-chloro-4-methylbenzo[d]thiazol-2-yl)-1-methylcyclopropanecarboxamide]
S. aureus ATCC25923; [5]
  MIC80: 5.9 µM (≈ 2.29 µg/mL)

## NCc1ccc2nc(N(CCCn3ccnc3)C(=O)C3CCC3)sc2c1 [Example 50, N-[6-(aminomethyl)-1,3-benzothiazol-2-yl]-N-[3-(1H-imidazol-1-yl)propyl]cyclobutanecarboxamide]
S. aureus ATCC25923; [5]
  MIC80: > 100 µM

## Cc1cc(Cl)cc2sc(N(CCCn3ccnc3)S(=O)(=O)c3ccco3)nc12 [Example 25, N-(3-(1H-imidazol-1-yl)propyl)-N-(6-chloro-4-methylbenzo[d]thiazol-2-yl)furan-2-sulfonamide]
S. aureus ATCC25923; [5]
  MIC80: 8.8 µM (≈ 3.85 µg/mL)

## Cc1cc(Cl)cc2sc(N(CCCn3cc[n+](C)c3)C(=O)c3ccco3)nc12 [Example 29, 1-(3-(N-(6-chloro-4-methylbenzo[d]thiazol-2-yl)furan-2-carboxamido)propyl)-3-methyl-1H-imidazol-3-ium]
S. aureus ATCC25923; [5]
  MIC80: 13.2 µM

## Cc1cc(Cl)cc2sc(N(CCCn3ccnc3)C(=O)C(C)N)nc12 (stereo not drawn) [Example 60]
S. aureus ATCC25923; [5]
  MIC80: > 100 µM

## Cc1cc(Cl)cc2sc(N(CCCn3ccnc3)CC3CC3)nc12 [Example 27, N-(3-(1H-imidazol-1-yl)propyl)-6-chloro-N-(cyclopropylmethyl)-4-methylbenzo[d]thiazol-2-amine]
S. aureus ATCC25923; [5]
  MIC80: 6.6 µM (≈ 2.38 µg/mL)

## Cc1cc(Cl)cc2sc(N(CCCn3ccnc3)C(=O)C3CC3)nc12 [Example 10, N-(3-(1H-imidazol-1-yl)propyl)-N-(6-chloro-4-methylbenzo[d]thiazol-2-yl)cyclopropanecarboxamide]
S. aureus ATCC25923; [5]
  MIC80: 1.7 µM (≈ 0.637 µg/mL)

## O=C(C1CC1)N(CCCn1ccnc1)c1nc2ccc(Cl)nc2s1 [Example 53, N-{5-chloro-[1,3]thiazolo[5,4-b]pyridin-2-yl}-N-[3-(1H-imidazol-1-yl)propyl]cyclopropanecarboxamide]
S. aureus ATCC25923; [5]
  MIC80: > 100 µM

## Cc1cc(Cl)cc2sc(N(CCC3CCNCC3)C(=O)C3CC3)nc12 [Example 43, N-(6-chloro-4-methyl-1,3-benzothiazol-2-yl)-N-[2-(piperidin-4-yl)ethyl]cyclopropanecarboxamide]
S. aureus ATCC25923; [5]
  MIC80: 100 µM (≈ 37.8 µg/mL)

## Cc1cc(Cl)cc2sc(NC(=O)c3ccco3)nc12 [Example 62]
S. aureus ATCC25923; [5]
  MIC80: > 100 µM

## Cc1cc(Cl)cc2sc(N(CCCn3ccnc3)C(=O)c3ccccn3)nc12 [Example 5, N-(3-(1H-imidazol-1-yl)propyl)-N-(6-chloro-4-methylbenzo[d]thiazol-2-yl)picolinamide]
S. aureus ATCC25923; [5]
  MIC80: 8.8 µM (≈ 3.62 µg/mL)

## O=C(c1ccco1)N(CCCn1ccnc1)c1nc2ccc(Cl)nc2s1 [Example 52, N-{5-chloro-[1,3]thiazolo[5,4-b]pyridin-2-yl}-N-[3-(1H-imidazol-1-yl)propyl]furan-2-carboxamide]
S. aureus ATCC25923; [5]
  MIC80: > 100 µM

## Cc1nc(Cl)cc2sc(N(CCCn3ccnc3)C(=O)c3ccco3)nc12 [Example 54, N-{6-chloro-4-methyl-[1,3]thiazolo[4,5-c]pyridin-2-yl}-N-[3-(1H-imidazol-1-yl)propyl]furan-2-carboxamide]
S. aureus ATCC25923; [5]
  MIC80: > 100 µM

## Cc1cc(Cl)cc2sc(N(CCCn3ccnc3)C(=O)C3CCCC3)nc12 [Example 8, N-(3-(1H-imidazol-1-yl)propyl)-N-(6-chloro-4-methylbenzo[d]thiazol-2-yl)cyclopentanecarboxamide]
S. aureus ATCC25923; [5]
  MIC80: 3.9 µM (≈ 1.57 µg/mL)
